Consider 6 compounds from ChEMBL document CHEMBL1144772, “Synthesis, in vitro pharmacology, and pharmacokinetic profiles of 2-[1-amino-1-carboxy-2-(9H-xanthen-9-yl)-ethyl]-1-fluorocyclopropanecarboxylic acid and its 6-heptyl ester, a potent mGluR2 antagonist” (Bioorg Med Chem, 2008).

Usually IC50 stands for the midpoint of a concentration-inhibition curve. The Tmax is the time from dosing to the highest level. In general, Cmax refers to the highest concentration seen after dosing. As a reminder, the half-life is how long it takes for the measured level to halve. The AUC(0-inf) is total exposure, with the tail of the curve extrapolated.

The target in data set [1] is Metabotropic glutamate receptor 2 (Homo sapiens, UniProt Q14416). As to the kind of experiment: Displacement of [3H]-MGS0008 from mGluR2 expressed in CHO cells. It is filed as cell-based. A general note: Loss of bound radioactivity is the signal in a displacement assay; it reports binding, not function.
Chain of Metabotropic glutamate receptor 2 (Q14416 whole entry): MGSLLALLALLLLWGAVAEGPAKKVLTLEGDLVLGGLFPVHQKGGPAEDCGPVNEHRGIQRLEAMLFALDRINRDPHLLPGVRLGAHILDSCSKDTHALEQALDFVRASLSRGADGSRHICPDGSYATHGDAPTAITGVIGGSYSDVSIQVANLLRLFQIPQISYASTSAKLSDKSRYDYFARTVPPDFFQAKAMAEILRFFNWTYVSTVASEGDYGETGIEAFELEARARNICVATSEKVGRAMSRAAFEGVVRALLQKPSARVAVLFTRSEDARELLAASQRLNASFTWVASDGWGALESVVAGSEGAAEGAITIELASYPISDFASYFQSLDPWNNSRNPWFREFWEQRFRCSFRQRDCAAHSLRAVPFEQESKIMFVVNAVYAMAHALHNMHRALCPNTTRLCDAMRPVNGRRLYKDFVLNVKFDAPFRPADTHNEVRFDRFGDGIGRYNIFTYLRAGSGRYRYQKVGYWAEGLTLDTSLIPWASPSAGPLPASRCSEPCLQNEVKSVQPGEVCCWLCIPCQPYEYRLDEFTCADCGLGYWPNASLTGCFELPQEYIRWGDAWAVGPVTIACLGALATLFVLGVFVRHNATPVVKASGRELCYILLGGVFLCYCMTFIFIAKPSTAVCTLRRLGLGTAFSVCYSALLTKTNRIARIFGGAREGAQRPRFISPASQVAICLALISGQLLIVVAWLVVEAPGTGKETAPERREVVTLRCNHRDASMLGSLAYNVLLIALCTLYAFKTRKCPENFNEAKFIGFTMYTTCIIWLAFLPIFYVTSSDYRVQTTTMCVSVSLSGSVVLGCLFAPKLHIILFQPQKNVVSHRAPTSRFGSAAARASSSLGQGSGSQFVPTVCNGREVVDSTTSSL
The nature of data set [2]: Tmax in Sprague-Dawley rat at 10 mg/kg, po. The data set is classed as ADME, organism-based. On the set-up: dose 10 mg/kg, route oral. The following applies: in vivo.
Data set [3] in a line: Cmax in Sprague-Dawley rat at 10 mg/kg, po. On the set-up: dose 10 mg/kg, route oral. It is filed as ADME, organism-based. The following applies: in vivo.
Data set [4] in a line: Half life in Sprague-Dawley rat at 10 mg/kg, po. It is filed as ADME, organism-based. More on the design: dose 10 mg/kg, route oral. The following applies: in vivo.
Data set [5] is described as follows: AUC (0 to infinity) in Sprague-Dawley rat at 10 mg/kg, po. It is filed as ADME, organism-based. More on the design: dose 10 mg/kg, route oral, time infinity. Conditions: plasma.
Data set [6] in a line: Transformation of (+)-17 to (+)-16a in rat liver S9 fraction at 3 uM after 60 mins.
Data set [7] is described as follows: Transformation of (+)-17 to (+)-16a in human liver S9 fraction at 3 uM after 60 mins.
Data set [8] is described as follows: Transformation of (+)-17 to (+)-16a in monkey liver S9 fraction at 3 uM after 60 mins. Conditions: rhesus monkey.

For `N[C@](CC1c2ccccc2Oc2ccccc21)(C(=O)O)[C@H]1C[C@]1(F)C(=O)O`, the IC50 in data set [1] is 3.49 nM. The Tmax in data set [2] is 2.67 h. The compound also showed a Cmax in data set [3] of 308 ng/mL. In addition, the half-life in data set [4] is 5.05 h. In data set [5], this compound showed an AUC(0-inf) of 3310 ng·h/mL.

Turning to `N[C@@](CC1c2ccccc2Oc2ccccc21)(C(=O)O)[C@@H]1C[C@@]1(F)C(=O)O`, in data set [1], the 50% inhibitory concentration (IC50) was over 10000 nM.

Take `N[C@](CC1c2ccccc2Oc2ccccc21)(C(=O)O)[C@H]1C[C@@H]1C(=O)O`: in data set [5], the area under the curve AUC(0-inf) came out at 284 ng·h/mL.

Take `NC(CC1c2ccccc2Oc2ccccc21)(C(=O)O)C1CC1(F)C(=O)O` (racemic; form 2): the IC50 in data set [1] was found to be 211 nM.

As to `CCCCCCCOC(=O)[C@@]1(F)C[C@@H]1[C@@](N)(CC1c2ccccc2Oc2ccccc21)C(=O)O`, the Tmax in data set [2] was found to be 2 h. Moreover, in data set [3], the concentration peaked (Cmax) at 8640 ng/mL. In data set [4], this compound showed a half-life of 3.87 h. Further, the AUC(0-inf) in data set [5] worked out at 78000 ng·h/mL. Besides, the transformation ratio at 1 h, 3 µM in data set [6] is 68.1%; in data set [7], 12.1%; in data set [8], 7.3%.

Compound `NC(CC1c2ccccc2Oc2ccccc21)(C(=O)O)C1CC1(F)C(=O)O` (racemic; form 1) came in with an IC50 in data set [1] of 4.45 nM.
